Test results: patent US20220310273A1, “SYSTEM FOR EVALUATING SENSITIVITY TO ANTI-CANCER AGENT AND A COMPUTER READABLE MEDIUM STORING PROGRAMS EXECUTING AN EVALUATING METHOD” (MBD Co., Ltd., priority 2021, published 2022)

Test system: cancer cells of biological individuals diagnosed with breast cancer
Assay: evaluation of sensitivity to doxorubicin (DOX) in patient tissues, using cell colony growth rate and IC50 value
Settings: patient tissue #2 (breast cancer)

`COc1cccc2c1C(=O)c1c(O)c3c(c(O)c1C2=O)C[C@@](O)(C(=O)CO)C[C@@H]3O[C@H]1C[C@H](N)[C@H](O)[C@H](C)O1` [doxorubicin] was tested, and the IC50 value was “low”.
